# According to patent US8673911B2, “Inhibitors of histone deacetylase” (MethylGene Inc., priority 2007, dated 2014):
# pIC50: −log10 of the molar value.
# Target: one or more of HDAC4, HDAC5, HDAC6, HDAC7, HDAC8, HDAC9 and HDAC11
# Assay: Inhibition of histone deacetylase enzymatic activity (fluorogenic Boc-Lys(Ac)-AMC / Boc-Lys(trifluoroacetyl)-AMC substrate)
# Type: biochemical
# Conditions: against one or more of HDAC4, HDAC5, HDAC6, HDAC7, HDAC8, HDAC9 and HDAC11
# Procedure: Inhibition of HDAC-1,2,3,6 and 8
# The following protocol is used to assay the compounds of the invention. In the assay, the buffer used is 25 mM HEPES, pH 8.0, 137 mM NaCl, 2.7 mM KCl, 1 mM MgCl2 and the substrate is Boc-Lys(Ac)-AMC in a 50 mM stock solution in DMSO. The enzyme stock solution is 4.08 μg/mL in buffer.
# The compounds are pre-incubated (2 μl, in DMSO diluted to […] in buffer for transfer to assay plate) with enzyme (20 μL of 4.08 μg/mL) for 10 minutes at room temperature (35 μL pre-incubation volume). The mixture is pre-incubated for 5 minutes at room temperature. The reaction is started by bringing the temperature to 37° C. and adding 15 μL substrate. Total reaction volume is 50 μL. The reaction is stopped after 20 minutes by addition of 50 μL developer, prepared as directed by Biomol (FLUOR DE LYS™ developer, Cat. # KI-105). A plate is incubated in the dark for 10 minutes at room temperature before reading (λEx=360 nm, λEm=470 nm, Cutoff filter at 435 nm).
# Inhibition of Class II HDAC and HDAC-11
# A 30 mM stock of Boc-Lys(trifluoroacetyl)-AMC substrate is prepared in DMSO. 2 μL test compound in DMSO is diluted to 50 μL in buffer (25 mM HEPES, pH 8.0, 137 mM NaCl, 2.7 mM KCl, 1 mM MgCl2, 0.1% BSA) and pre-incubated with HDAC enzyme (30 μL of a final enzyme concentration of 0.1-0.2 nM) for 10 minutes at room temperature. Reaction is started by adding 18 μL Boc-Lys(trifluoroacetyl)-AMC substrate and incubating at 37° C. for 20-30 minutes. The reaction is stopped by adding 50 μL trypsin (1 mg/mL) and a known HDAC inhibitor. The plate is then incubated in the dark for 20 minutes at room temperature and read with Ex=360 nm, Em=470 nm, cutoff filter at 435 nm.
row,Structure (SMILES),pIC50
1,O=C(NO)c1ccccc1-c1cccc(-c2ccccc2)c1 [Compound 13],5.30 to 6.12
2,"COc1cccc(-c2ccccc2C(=O)NO)c1 [Compound 19, N-hydroxy-3′-melhoxybipheny 1-2-carboxamide]",5.30 to 6.12
3,"O=C(NO)c1ccccc1-n1cccc1 [Compound 21, N-hydroxy-2-(lH-pyrrol-1-yl)benzamide]",5.30 to 6.12
4,"Cc1cscc1-c1ccccc1C(=O)NO [Compound 24, N-hydroxy-2-(4-mcthylthiophen-3-yl)benzamide]",5.30 to 6.12
5,"O=C(NO)c1ccccc1-c1cccc([N+](=O)[O-])c1 [Compound 26, N-hydroxy-3′-nitrobiphenyl-2-carboxamide]",5.30 to 6.12
6,"O=C(NO)c1ccccc1-c1cccc(F)c1 [Compound 27, 3′-fluoro-N-hydroxybiphenyl-2-carboxamide]",5.30 to 6.12
7,"Cc1cscc1-c1cccc(-c2ccccc2C(=O)NO)c1 [Compound 29, N-hydroxy-3′-(4-methyl-thiophen-3-yl) biphcnyl-2-carboxamidc]",6.12 to 6.30
8,"O=C(NO)c1cn(-c2ccccc2)nc1-c1ccccc1 [Compound 32, N-hydroxy-1,3-diphenyl-1H-pyrazole-4-carboxamidc]",6.12 to 6.30
9,"COc1cccc(-c2cc(C)ccc2C(=O)NO)c1 [Compound 33, N-hydroxy-3′-methoxy-5-mcthylbiphenyl-2-carboxamide]",6.12 to 6.30
10,COc1cccc(-c2ccc(C(=O)NO)c(-c3cccc(OC)c3)c2)c1 [Compound 50],5.30 to 6.12
11,"O=C(NO)c1sc(-c2ccccc2)cc1-c1ccccc1 [Compound 89, N-hydroxy-3,5-diphenylthiophene-2-carboxamide]",6.30 to 6.60
12,"COc1cccc(-c2cc(F)ccc2C(=O)NO)c1 [Compound 98, 5-fluoro-N-hydroxy-3′-methoxybiphenyl-2-carboxamidc]",6.12 to 6.30
13,"O=C(NO)c1cn(Cc2ccccc2)nc1-c1ccccc1 [Compound 106, 1-benzyl-N-hydroxy-3-phenyl 1H-pyrazole-4-carboxamide]",6.30 to 6.60
14,"O=C(NO)c1cn(-c2ccccc2)nc1-c1ccc(F)cc1 [Compound 108, 3-(4-fluorophenyl)-N-hydroxy-1-phenyl-1H-pyrazole-4-carboxamide]",5.30 to 6.12
15,"O=C(NO)c1sc2ccc(NS(=O)(=O)c3ccccc3)cc2c1-c1ccccc1 [Compound 126, N-hydroxy-3-phenyl-5-(phenylsulfonamido) benzo[b] thiophene-2-carboxamide]",6.12 to 6.30
16,"O=C(NO)c1sc(Cc2ccccc2)cc1-c1ccccc1 [Compound 130, 5-benzyl-N-hydroxy-3-phenylthiophene-2-carboxamide]",> 6.60
17,"O=C(Nc1ccc2sc(C(=O)NO)c(-c3ccccc3)c2c1)OCc1ccccc1 [Compound 131, benzyl 2-(hydroxycarbamoyl)-3-phenylbenzo[b] thiophen-5-ylcarbamate]",6.12 to 6.30
18,"O=C(NO)c1sc(C2CCN(Cc3ccccc3)CC2)nc1-c1ccccc1 [Compound 132, 2-(1-benzylpiperidin-4-yl)-N-hydroxy-4-phenylthiazole-5-carboxamide]",> 6.60
19,"O=C(NO)c1sc(C2CCN(C(=O)c3ccccc3)CC2)nc1-c1ccccc1 [Compound 133, 2-(1-benzoylpiperidin-4-yl)-N-hydroxy-4-phenylthiazole-5-carboxamide]",> 6.60
20,"O=C(NO)c1sc(-c2ccc3c(c2)CCO3)nc1-c1ccccc1 [Compound 139, 2-(2,3-dihydrobenzofuran-5-yl)-N-hydroxy-4-phenylthiazole-5-carboxamide]",5.30 to 6.12
21,"O=C(NO)c1sc(-c2cccs2)nc1-c1ccccc1 [Compound 140, N-hydroxy-4-phenyl-2-(thiophen-2-yl)thiazole-5-carboxamide]",6.12 to 6.30
22,"O=C(NO)c1cnc(-c2ccccc2)nc1-c1ccccc1 [Compound 141, N-hydroxy-2,4-diphenylpyrimidine-5-carboxamide]",6.30 to 6.60
23,"O=C(NO)c1cnc(-c2ccccc2)nc1-c1cccc(F)c1 [Compound 143, 4-(3-fluorophenyl)-N-hydroxy-2-phenylpyrimidine-5-carboxamide]",6.30 to 6.60
24,"O=C(NO)c1sc(C2CCN(Cc3ccncc3)CC2)nc1-c1ccccc1 [Compound 144, N-hydroxy-4-phenyl-2-(1-(pyridin-4-ylmethyl)piperidin-4-yl)thiazole-5-carboxamide]",> 6.60
25,"O=C(NO)c1sc(C2CCN(C(=O)N3CCCC3)CC2)nc1-c1ccccc1 [Compound 145, N-hydroxy-4-phenyl-2-(1-(pyrrolidine-1-carbonyl)piperidin-4-yl)thiazole-5-carboxamide]",> 6.60
26,"O=C(NO)c1sc(-c2ccc(OCCN3CCOCC3)cc2)nc1-c1ccccc1 [Compound 146, N-hydroxy-2-(4-(2-morpholinoethoxy)phenyl)-4-phenylthiazole-5-carboxamide]",> 6.60
27,"CCOC(=O)N1CCC(c2nc(-c3ccccc3)c(C(=O)NO)s2)CC1 [Compound 147, ethyl 4-(5-(hydroxycarbamoyl)-4-phenylthiazol-2-yl)piperidine-1-carboxylate]",> 6.60
28,"CS(=O)(=O)N1CCC(c2nc(-c3ccccc3)c(C(=O)NO)s2)CC1 [Compound 148, N-hydroxy-2-(1-(methylsulfonyl)piperidin-4-yl)-4-phenylthiazole-5-carboxamide]",> 6.60
29,"O=C(NO)c1sc(C(c2ccccc2)c2ccccc2)nc1-c1ccccc1 [Compound 150, 2-benzhydryl-N-hydroxy-4-phenylthiazole-5-carboxamide]",> 6.60
30,"O=C(NO)c1sc(C2CCN(S(=O)(=O)c3ccccc3)CC2)nc1-c1ccccc1 [Compound 151, N-hydroxy-4-phenyl-2-(1-(phenylsulfonyl)piperidin-4-yl)thiazole-5-carboxamide]",> 6.60

# More lines, now with the values ahead:
row,pIC50,Structure (SMILES)
1,> 6.60,"Cc1cscc1-c1ccc(C(=O)NO)c(-c2cscc2C)c1 [Compound 51, N-hydroxy-2,4-bis(4-methylthiophen-3-yl)benzamide]"
2,> 6.60,O=C(NO)c1ccc(-c2ccccc2)cc1-c1ccccc1 [Compound 52]
3,> 6.60,"O=C(NO)c1sc(-c2ccccc2)nc1-c1ccccc1 [Compound 74, N-hydroxy-2,4-diphenylthiazole-5-carboxamide]"
4,> 6.60,"COc1ccc(-c2nc(-c3ccc(F)cc3)c(C(=O)NO)s2)cc1 [Compound 80, 4-(4-fluorophenyl)-N-hydroxy-2-(4-methoxyphenyl)thiazole-5-carboxamide]"
5,> 6.60,"O=C(NO)c1sc(-c2ccccc2)cc1-c1ccccc1 [Compound 86, N-hydroxy-3,5-diphenylthiophene-2-carboxamide]"
6,> 6.60,"O=C(NO)c1sc(-c2ccccc2)cc1-c1ccccc1 [Compound 92, N-hydroxy-3,5-diphenylthiophene-2-carboxamide]"
7,> 6.60,"O=C(NO)c1ccc(C2=Nc3ccccc3Oc3ccccc32)cc1-c1ccccc1 [Compound 104, (Z)-5-(dibenzo[b,f][1,4]oxazepin-11-yl)-N-hydroxybiphenyl-2-carboxamide]"
8,> 6.60,"O=C(NO)c1sc(-c2ccc(N3CCOCC3)cc2)nc1-c1ccccc1 [Compound 109, N-hydroxy-2-(4-morpholino-phenyl)-4-phenylthiazole-5-carboxamide]"
9,> 6.60,"O=C(NO)c1sc(-c2csc3ccccc23)nc1-c1ccccc1 [Compound 110, 2-(benzo[b]thiophen-3-yl)-N-hydroxy-4-phenylthiazole-5-carboxamide]"
10,> 6.60,"CN(C)c1ccc(-c2ccc(C(=O)NO)c(-c3ccccc3)c2)cc1 [Compound 116, 5-(4-dimethylamino-phenyl)-N-hydroxybiphenyl-2-carboxamide]"
11,> 6.60,"O=C(NO)c1sc(N2CCCCC2)nc1-c1ccccc1 [Compound 117, N-hydroxy-4-phenyl-2-(piperidin-1-yl)thiazole-5-carboxamide]"
12,> 6.60,"O=C(NO)c1sc(-c2cccnc2)nc1-c1ccccc1 [Compound 120, N-hydroxy-4-phenyl-2-(pyridin-3-yl)thiazole-5-carboxamide]"
13,> 6.60,"O=C(NO)c1sc(N2CCCc3ccccc32)nc1-c1ccccc1 [Compound 121, 2-(3,4-dihydroquinolin-1(2H)-yl)-N-hydroxy-4-phenylthiazole-5-carboxamide]"
14,> 6.60,"O=C(NO)c1sc(-c2ccncc2)nc1-c1ccccc1 [Compound 122, N-hydroxy-4-phenyl-2-(pyridin-4-yl)thiazole-5-carboxamide]"
15,> 6.60,"O=C(NO)c1sc(COc2ccccc2)cc1-c1ccccc1 [Compound 125, N-hydroxy-5-(phenoxymethyl)-3-phenylthiophene-2-carboxamide]"
